Patent US10953012B2, “Heterocyclic compounds for the inhibition of pask” (BioEnergenix LLC, priority 2011, dated 2021)

target: PASK (Homo sapiens (Human), UniProt Q96RG2); assay: PAS Kinase FRET Assay; assay type: biochemical; settings: TR-FRET assay; read-out: IC50 Kinase Domain
Description: The aim of the FRET assay is to determine the inhibition potential of test compounds on targeted kinase. This assay platform provides a homogenous screening method for measuring kinase activity by quantitating the amount of phospho-substrate in solution following a kinase reaction.
In the presence of kinase and ATP, the Ulight-peptide is phosphorylated and captured by an anti-phospho-substrate antibody, which brings the Eu chelate donor and Ulight acceptor dyes into close proximity. Upon excitation at 340 nm, the Eu chelate transfers its energy to the Ulight dye, resulting in a fluorescent light emission at 665 nm
Titration of kinase at 1 mM ATP was achieved via the following protocol. After making serial three-fold dilutions of PASK (Invitrogen) in reaction buffer across the plate; 5 μl of kinase dilution and 5 μl substrate/ATP mix were added to the wells of the white Optiplate-384 (PerkinElmer). The contents of the plate were and incubated at RT for 1 h. The reaction was stopped by adding 5 μl of stop solution to each test well followed by mixing and incubation at RT for 10 minutes. 5 μl of detection mix (detection antibody diluted in detection buffer) was added; the contents of the plate were mixed and then incubated in the dark for 1 hour at RT. The signal was recorded at TR-FRET mode (665 nm/615 nm). The results were graphed to calculate the EC50.
Titration of ATP at the EC50 concentration of kinase to determine ATP Km, app. was performed using the following method. After making serial dilutions of ATP (Invitrogen), 5 μl of ATP dilution and 5 μl substrate/kinase mix were added to the wells of the white Optiplate-384 (PerkinElmer). The contents of the plate were and incubated at RT for 1 h. The reaction was stopped by adding 5 μl of stop solution to each test well followed by mixing and incubation at RT for 10 minutes. 5 μl of detection mix (detection antibody diluted in detection buffer) was added; the contents of the plate were mixed and then incubated in the dark for 1 hour at RT. The signal was recorded at TR-FRET mode (665 nm/615 nm). The results were graphed to calculate the EC50 as the ATP Km, app.
Compound screening was done via the following method. 10 mM stock solution of test compound in DMSO was prepared by dissolving test compound in DMSO at RT for 1 hour, and then sonicating at 100% output for 8 minutes. If compound is not soluble under this condition, it was diluted to 3 mM. Kinase reaction buffer was prepared containing 10 mM MgCl2, 50 mM HEPES, 1 mM EGTA, 0.01% TWEEN-20, 2 mM DTT. Serial dilutions of the test compounds were prepared at 4×final assay concentrations using Freedom EVO200® dispensing system as follows: 12×10^−5 M, 4×10^−5 M, 1.33×10^−5 M, 4.44×10^−6 M, 1.48×10^−6 M, 4.92×10^−7 M, 1.65×10^−7 M, […], 1.82×10^−8M, 6.09×10^−9, 2.03×10^−9 M. Test compounds (2.5 μl at 4× the final assay concentration) was added to wells using Freedom EVO200® dispensing system. As a positive control, 2.5 μl of positive compound was added to assay wells, and 2.5 μl of DMSO to assay wells as vehicle control. Kinase solution was prepared in reaction buffer at 2×final assay concentration. Kinase solution (5 μl) was added to each well of the assay plate. The substrate and ATP solution was prepared in kinase reaction buffer at 4×final assay concentration. The kinase reaction was started by adding 2.5 μl of substrate+ATP mix solution to each well of the assay plate. The plate is mixed on a plate shaker; then covered and allowed to react for 2 hours in the dark at 25° C. without shaking. The reaction was stopped by adding 5 μl of stop solution to each test well followed by mixing and incubation at RT for 10 minutes in the dark. 5 μl of detection mix (detection antibody diluted in detection buffer) was added; the contents of the plate were mixed and then incubated in the dark for 1 hour at RT. The signal was recorded at TR-FRET mode (665 nm/615 nm).

Sequence of PASK (Q96RG2 999-1251): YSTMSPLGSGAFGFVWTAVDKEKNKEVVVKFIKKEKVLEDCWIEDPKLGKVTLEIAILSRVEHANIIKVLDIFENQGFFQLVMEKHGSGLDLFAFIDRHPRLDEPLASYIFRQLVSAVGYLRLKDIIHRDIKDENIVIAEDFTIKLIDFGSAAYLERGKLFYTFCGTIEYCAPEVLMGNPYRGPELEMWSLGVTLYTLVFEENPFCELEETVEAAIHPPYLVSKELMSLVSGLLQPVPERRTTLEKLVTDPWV

IC50, ≤ 10 µM:
O=c1cc(-c2ccc3[nH]nnc3c2)[nH]c2c(Cc3ccccc3)cnn12 [Example 207, 5-(1H-Benzo[d][1,2,3]triazol-5-yl)-3-benzylpyrazolo[1,5-a]pyrimidin-7(4H)-one]
Nc1nn2c(=O)cc(-c3ccc4[nH]nnc4c3)[nH]c2c1Cc1ccccc1 [Example 208, 2-Amino-5-(1H-benzo[d][1,2,3]triazol-5-yl)-3-benzylpyrazolo[1,5-a]pyrimidin-7(4H)-one]
O=c1cc(-c2ccc3[nH]nnc3c2)[nH]c2c(Cc3ccccc3)c(O)nn12 [Example 209, 5-(1H-Benzo[d][1,2,3]triazol-5-yl)-3-benzyl-2-hydroxypyrazolo[1,5-a]pyrimidin-7(4H)-one]
O=c1cc(-c2ccc3c(c2)OCO3)[nH]c2c(Cc3ccccn3)cnn12 [Example 211, 5-(Benzo[d][1,3]dioxol-5-yl)-3-(pyridin-2-ylmethyl)-pyrazolo[1,5-a]pyrimidin-7(4H)-one]
Cc1nn2c(=O)cc(-c3ccc4[nH]nnc4c3)[nH]c2c1-c1ccccc1 [Example 212, 5-(1H-Benzo[d][1,2,3]triazol-5-yl)-2-methyl-3-phenylpyrazolo[1,5-a]pyrimidin-7(4H)-one]
O=c1cc(-c2ccc3[nH]nnc3c2)[nH]c2c(-c3ccccc3)c(O)nn12 [Example 215, 5-(1H-Benzo[d][1,2,3]triazol-5-yl)-2-hydroxy-3-phenylpyrazolo[1,5-a]pyrimidin-7(4H)-one]
Cc1nn2c(=O)cc(-c3ccc4[nH]nnc4c3)[nH]c2c1-c1ccc(Cl)cc1 [Example 216, 5-(1H-Benzo[d][1,2,3]triazol-5-yl)-3-(4-chlorophenyl)-2-methylpyrazolo[1,5-a]pyrimidin-7(4H)-one]
Cc1nn2c(=O)cc(-c3ccc4[nH]ncc4c3)[nH]c2c1-c1ccccn1 [Example 219, 5-(1H-Indazol-5-yl)-2-methyl-3-(pyridin-2-yl)pyrazolo[1,5-a]pyrimidin-7(4H)-one]
Cc1nn2c(=O)cc(-c3ccc4[nH]ncc4c3)[nH]c2c1-c1ccc(Cl)cc1 [Example 220, 3-(4-Chlorophenyl)-5-(1H-indazol-5-yl)-2-methylpyrazolo[1,5-a]pyrimidin-7(4H)-one]
Nc1nn2c(=O)cc(-c3ccc4[nH]ncc4c3)[nH]c2c1-c1ccc(Cl)cc1 [Example 221, 2-Amino-3-(4-chlorophenyl)-5-(1H-indazol-5-yl)pyrazolo[1,5-a]pyrimidin-7(4H)-one]
O=c1cc(-c2ccc3[nH]ncc3c2)[nH]c2c(-c3ccc(Cl)cc3)c(O)nn12 [Example 222, 3-(4-Chlorophenyl)-2-hydroxy-5-(1H-indazol-5-yl)pyrazolo[1,5-a]pyrimidin-7(4H)-one]
CCCNC(=O)c1c(N)nn2c(=O)cc(-c3ccc4c(c3)OCCO4)[nH]c12 [Example 226, 2-Amino-5-(2,3-dihydrobenzo[b][1,4]dioxin-6-yl)-7-oxo-N-propyl-4,7-dihydropyrazolo[1,5-a]pyrimidine-3-carboxamide]
CCCNC(=O)c1c(O)nn2c(=O)cc(-c3ccc4[nH]nnc4c3)[nH]c12 [Example 228, 5-(1H-Benzo[d][1,2,3]triazol-5-yl)-2-hydroxy-7-oxo-N-propyl-4,7-dihydropyrazolo[1,5-a]pyrimidine-3-carboxamide]
Cc1c(-c2cc(=O)n3ncc(-c4ccccn4)c3[nH]2)ccc2c1OCO2 [Example 229, 5-(4-Methylbenzo[d][1,3]dioxol-5-yl)-3-(pyridin-2-yl)pyrazolo[1,5-a]pyrimidin-7(4H)-one]
Cc1c(-c2cc(=O)n3nc(N)c(-c4ccccn4)c3[nH]2)ccc2c1OCO2 [Example 230, 2-Amino-5-(4-methylbenzo[d][1,3]dioxol-5-yl)-3-(pyridin-2-yl)pyrazolo[1,5-a]pyrimidin-7(4H)-one]
Cc1c(-c2cc(=O)n3nc(O)c(-c4ccccn4)c3[nH]2)ccc2c1OCO2 [Example 231, 2-Hydroxy-5-(4-methylbenzo[d][1,3]dioxol-5-yl)-3-(pyridin-2-yl)pyrazolo[1,5-a]pyrimidin-7(4H)-one]
Cc1nn2c(=O)cc(-c3ccc4c(c3C)OCO4)[nH]c2c1-c1ccccn1 [Example 232, 2-Methyl-5-(4-methylbenzo[d][1,3]dioxol-5-yl)-3-(pyridin-2-yl)pyrazolo[1,5-a]pyrimidin-7(4H)-one]
COc1c(-c2cc(=O)n3ncc(-c4ccccn4)c3[nH]2)ccc2c1OCO2 [Example 233, 5-(4-Methoxybenzo[d][1,3]dioxol-5-yl)-3-(pyridin-2-yl)pyrazolo[1,5-a]pyrimidin-7(4H)-one]
Cc1cc2[nH]nnc2cc1-c1cc(=O)n2ncc(-c3ccccn3)c2[nH]1 [Example 236, 5-(6-Methyl-1H-benzo[d][1,2,3]triazol-5-yl)-3-(pyridin-2-yl)pyrazolo[1,5-a]pyrimidin-7(4H)-one]
Cc1cc2[nH]nnc2cc1-c1cc(=O)n2nc(N)c(-c3ccccn3)c2[nH]1 [Example 238, 2-Amino-5-(6-methyl-1H-benzo[d][1,2,3]triazol-5-yl)-3-(pyridin-2-yl)pyrazolo[1,5-a]pyrimidin-7(4H)-one]
Cc1cc2[nH]nnc2cc1-c1cc(=O)n2nc(O)c(-c3ccccn3)c2[nH]1 [Example 239, 2-Hydroxy-5-(6-methyl-1H-benzo[d][1,2,3]triazol-5-yl)-3-(pyridin-2-yl)pyrazolo[1,5-a]pyrimidin-7(4H)-one]
Cc1c(-c2cc(=O)n3nc(N)c(-c4ccccn4)c3[nH]2)ccc2[nH]nnc12 [Example 240, 2-Amino-5-(4-methyl-1H-benzo[d][1,2,3]triazol-5-yl)-3-(pyridin-2-yl)pyrazolo[1,5-a]pyrimidin-7(4H)-one]
Cc1c(-c2cc(=O)n3nc(O)c(-c4ccccn4)c3[nH]2)ccc2[nH]nnc12 [Example 241, 2-Hydroxy-5-(4-methyl-1H-benzo[d][1,2,3]triazol-5-yl)-3-(pyridin-2-yl)pyrazolo[1,5-a]pyrimidin-7(4H)-one]
Cc1nn2c(=O)cc(-c3ccc4[nH]nnc4c3C)[nH]c2c1-c1ccccn1 [Example 242, 2-Methyl-5-(4-methyl-1H-benzo[d][1,2,3]triazol-5-yl)-3-(pyridin-2-yl)pyrazolo[1,5-a]pyrimidin-7(4H)-one]
COc1cc2[nH]nnc2cc1-c1cc(=O)n2nc(O)c(-c3ccccn3)c2[nH]1 [Example 244, 2-Hydroxy-5-(6-methoxy-1H-benzo[d][1,2,3]triazol-5-yl)-3-(pyridin-2-yl)pyrazolo[1,5-a]pyrimidin-7(4H)-one]
COc1c(-c2cc(=O)n3nc(N)c(-c4ccccn4)c3[nH]2)ccc2[nH]nnc12 [Example 246, 2-Amino-5-(4-methoxy-1H-benzo[d][1,2,3]triazol-5-yl)-3-(pyridin-2-yl)pyrazolo[1,5-a]pyrimidin-7(4H)-one]
COc1c(-c2cc(=O)n3nc(O)c(-c4ccccn4)c3[nH]2)ccc2[nH]nnc12 [Example 247, 2-Hydroxy-5-(4-methoxy-1H-benzo[d][1,2,3]triazol-5-yl)-3-(pyridin-2-yl)pyrazolo[1,5-a]pyrimidin-7(4H)-one]
COc1c(-c2cc(=O)n3nc(C)c(-c4ccccn4)c3[nH]2)ccc2[nH]nnc12 [Example 248, 5-(4-Methoxy-1H-benzo[d][1,2,3]triazol-5-yl)-2-methyl-3-(pyridin-2-yl)pyrazolo[1,5-a]pyrimidin-7(4H)-one]
